From the NIST ThermoML archive (doi:10.1016/j.jct.2016.10.022)
± gives the expanded uncertainty stated by the source.

How the values were obtained:
[1] = Crystal; DTA
[2] = Molar enthalpy of transition or fusion; conditions: Crystal; DSC

For `CC[C@H](C)[C@H]1O[C@]2(C=C[C@@H]1C)C[C@@H]1C[C@@H](C/C=C(\C)[C@@H](O[C@H]3C[C@H](OC)[C@@H](O[C@H]4C[C@H](OC)[C@@H](O)[C@H](C)O4)[C@H](C)O3)[C@@H](C)/C=C/C=C3\CO[C@@H]4[C@H](O)C(C)=C[C@@H](C(=O)O1)[C@]34O)O2` [Avermectin B1a], the Normal melting temperature [1] was 163.29 ± 0.61 °C and the “Molar enthalpy of transition or fusion” value [2] was 6.91 ± 0.153 kcal/mol.
